According to PMC4042160, “In silico, in vitro and cellular analysis with a kinome-wide inhibitor panel correlates cellular LRRK2 dephosphorylation to inhibitor activity on LRRK2” (Frontiers in Molecular Neuroscience, 2014):
Counter-ions that a name gives are not always drawn.

How the values were obtained:
[1] = target: T1, GST-tagged truncated LRRK2 containing residues 970 to 2527 (Homo sapiens, UniProt Q5S007); test: In vitro LRRKtide peptide-substrate kinase assay, single dose testing (10 μM); type: biochemical; details: for % LRRKtide phosphorylation relative to solvent: LRRKtide assay @ 10 μM inhibitor, GST-LRRK2 970-2527, 10 μM ATP, mean, N = 3, solvent control = 100%
T1 construct: GST-tagged truncated LRRK2 containing residues 970 to 2527 (Life Technologies); purchased Life Technologies
T1 sequence (Q5S007 970-2527): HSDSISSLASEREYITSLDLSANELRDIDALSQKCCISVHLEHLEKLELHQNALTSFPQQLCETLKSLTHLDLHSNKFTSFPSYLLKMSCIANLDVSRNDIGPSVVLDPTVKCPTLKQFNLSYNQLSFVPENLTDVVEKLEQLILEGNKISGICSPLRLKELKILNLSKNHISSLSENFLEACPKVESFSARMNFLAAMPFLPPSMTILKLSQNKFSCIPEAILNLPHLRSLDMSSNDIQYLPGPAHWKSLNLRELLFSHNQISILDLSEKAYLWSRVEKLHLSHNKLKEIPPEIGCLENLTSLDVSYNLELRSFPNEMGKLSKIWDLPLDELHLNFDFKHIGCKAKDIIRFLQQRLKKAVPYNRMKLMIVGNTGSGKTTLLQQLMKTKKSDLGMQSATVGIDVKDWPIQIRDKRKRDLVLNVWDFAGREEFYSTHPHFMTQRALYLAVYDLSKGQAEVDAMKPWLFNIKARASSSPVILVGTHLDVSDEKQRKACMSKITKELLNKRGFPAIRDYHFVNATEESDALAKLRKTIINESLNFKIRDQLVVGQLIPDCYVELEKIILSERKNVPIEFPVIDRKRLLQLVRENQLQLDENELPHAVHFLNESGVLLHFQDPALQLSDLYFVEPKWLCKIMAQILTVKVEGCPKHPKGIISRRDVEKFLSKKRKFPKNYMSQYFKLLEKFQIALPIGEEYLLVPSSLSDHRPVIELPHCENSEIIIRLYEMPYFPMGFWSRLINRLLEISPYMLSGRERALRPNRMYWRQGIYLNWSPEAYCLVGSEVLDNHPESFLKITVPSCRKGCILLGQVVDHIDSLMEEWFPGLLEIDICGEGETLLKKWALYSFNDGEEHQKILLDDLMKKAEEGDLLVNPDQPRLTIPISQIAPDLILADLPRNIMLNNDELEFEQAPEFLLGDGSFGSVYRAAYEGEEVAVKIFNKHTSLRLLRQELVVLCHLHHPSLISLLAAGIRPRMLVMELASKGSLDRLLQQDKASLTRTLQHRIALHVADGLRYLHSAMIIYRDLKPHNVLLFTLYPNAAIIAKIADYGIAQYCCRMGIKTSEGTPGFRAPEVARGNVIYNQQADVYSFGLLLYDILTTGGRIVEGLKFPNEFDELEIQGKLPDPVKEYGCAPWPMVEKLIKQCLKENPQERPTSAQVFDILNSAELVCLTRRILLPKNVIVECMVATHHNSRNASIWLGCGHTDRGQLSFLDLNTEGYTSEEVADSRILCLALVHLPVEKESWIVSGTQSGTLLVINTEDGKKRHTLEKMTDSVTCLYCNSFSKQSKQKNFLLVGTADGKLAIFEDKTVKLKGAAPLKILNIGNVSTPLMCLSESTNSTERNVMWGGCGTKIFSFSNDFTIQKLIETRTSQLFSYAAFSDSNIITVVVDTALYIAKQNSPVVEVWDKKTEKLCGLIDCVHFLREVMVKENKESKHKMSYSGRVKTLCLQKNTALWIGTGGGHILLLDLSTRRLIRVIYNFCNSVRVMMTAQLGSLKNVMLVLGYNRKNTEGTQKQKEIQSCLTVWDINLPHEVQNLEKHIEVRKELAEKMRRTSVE

[2] = target: T2, LRRK2 phospho-Ser935 (Homo sapiens, UniProt Q5S007); test: Cellular LRRK2 phosphoserine 935 dephosphorylation spotblot assay in SH-SY5Y cells stably expressing 3xFlag-LRRK2; type: cell-based; details: for Phosphorylation level relative to solvent (%) (cellular pS935 assay): @ 5 μM for 2 h, SH-SY5Y stably expressing LRRK2, pS935/total LRRK2; for dephosphorylation of LRRK2 (Ser935): 5 μM, 2 h, SH-SY5Y
T2 construct: expressed in transfected cells
T2 sequence (Q5S007 whole entry): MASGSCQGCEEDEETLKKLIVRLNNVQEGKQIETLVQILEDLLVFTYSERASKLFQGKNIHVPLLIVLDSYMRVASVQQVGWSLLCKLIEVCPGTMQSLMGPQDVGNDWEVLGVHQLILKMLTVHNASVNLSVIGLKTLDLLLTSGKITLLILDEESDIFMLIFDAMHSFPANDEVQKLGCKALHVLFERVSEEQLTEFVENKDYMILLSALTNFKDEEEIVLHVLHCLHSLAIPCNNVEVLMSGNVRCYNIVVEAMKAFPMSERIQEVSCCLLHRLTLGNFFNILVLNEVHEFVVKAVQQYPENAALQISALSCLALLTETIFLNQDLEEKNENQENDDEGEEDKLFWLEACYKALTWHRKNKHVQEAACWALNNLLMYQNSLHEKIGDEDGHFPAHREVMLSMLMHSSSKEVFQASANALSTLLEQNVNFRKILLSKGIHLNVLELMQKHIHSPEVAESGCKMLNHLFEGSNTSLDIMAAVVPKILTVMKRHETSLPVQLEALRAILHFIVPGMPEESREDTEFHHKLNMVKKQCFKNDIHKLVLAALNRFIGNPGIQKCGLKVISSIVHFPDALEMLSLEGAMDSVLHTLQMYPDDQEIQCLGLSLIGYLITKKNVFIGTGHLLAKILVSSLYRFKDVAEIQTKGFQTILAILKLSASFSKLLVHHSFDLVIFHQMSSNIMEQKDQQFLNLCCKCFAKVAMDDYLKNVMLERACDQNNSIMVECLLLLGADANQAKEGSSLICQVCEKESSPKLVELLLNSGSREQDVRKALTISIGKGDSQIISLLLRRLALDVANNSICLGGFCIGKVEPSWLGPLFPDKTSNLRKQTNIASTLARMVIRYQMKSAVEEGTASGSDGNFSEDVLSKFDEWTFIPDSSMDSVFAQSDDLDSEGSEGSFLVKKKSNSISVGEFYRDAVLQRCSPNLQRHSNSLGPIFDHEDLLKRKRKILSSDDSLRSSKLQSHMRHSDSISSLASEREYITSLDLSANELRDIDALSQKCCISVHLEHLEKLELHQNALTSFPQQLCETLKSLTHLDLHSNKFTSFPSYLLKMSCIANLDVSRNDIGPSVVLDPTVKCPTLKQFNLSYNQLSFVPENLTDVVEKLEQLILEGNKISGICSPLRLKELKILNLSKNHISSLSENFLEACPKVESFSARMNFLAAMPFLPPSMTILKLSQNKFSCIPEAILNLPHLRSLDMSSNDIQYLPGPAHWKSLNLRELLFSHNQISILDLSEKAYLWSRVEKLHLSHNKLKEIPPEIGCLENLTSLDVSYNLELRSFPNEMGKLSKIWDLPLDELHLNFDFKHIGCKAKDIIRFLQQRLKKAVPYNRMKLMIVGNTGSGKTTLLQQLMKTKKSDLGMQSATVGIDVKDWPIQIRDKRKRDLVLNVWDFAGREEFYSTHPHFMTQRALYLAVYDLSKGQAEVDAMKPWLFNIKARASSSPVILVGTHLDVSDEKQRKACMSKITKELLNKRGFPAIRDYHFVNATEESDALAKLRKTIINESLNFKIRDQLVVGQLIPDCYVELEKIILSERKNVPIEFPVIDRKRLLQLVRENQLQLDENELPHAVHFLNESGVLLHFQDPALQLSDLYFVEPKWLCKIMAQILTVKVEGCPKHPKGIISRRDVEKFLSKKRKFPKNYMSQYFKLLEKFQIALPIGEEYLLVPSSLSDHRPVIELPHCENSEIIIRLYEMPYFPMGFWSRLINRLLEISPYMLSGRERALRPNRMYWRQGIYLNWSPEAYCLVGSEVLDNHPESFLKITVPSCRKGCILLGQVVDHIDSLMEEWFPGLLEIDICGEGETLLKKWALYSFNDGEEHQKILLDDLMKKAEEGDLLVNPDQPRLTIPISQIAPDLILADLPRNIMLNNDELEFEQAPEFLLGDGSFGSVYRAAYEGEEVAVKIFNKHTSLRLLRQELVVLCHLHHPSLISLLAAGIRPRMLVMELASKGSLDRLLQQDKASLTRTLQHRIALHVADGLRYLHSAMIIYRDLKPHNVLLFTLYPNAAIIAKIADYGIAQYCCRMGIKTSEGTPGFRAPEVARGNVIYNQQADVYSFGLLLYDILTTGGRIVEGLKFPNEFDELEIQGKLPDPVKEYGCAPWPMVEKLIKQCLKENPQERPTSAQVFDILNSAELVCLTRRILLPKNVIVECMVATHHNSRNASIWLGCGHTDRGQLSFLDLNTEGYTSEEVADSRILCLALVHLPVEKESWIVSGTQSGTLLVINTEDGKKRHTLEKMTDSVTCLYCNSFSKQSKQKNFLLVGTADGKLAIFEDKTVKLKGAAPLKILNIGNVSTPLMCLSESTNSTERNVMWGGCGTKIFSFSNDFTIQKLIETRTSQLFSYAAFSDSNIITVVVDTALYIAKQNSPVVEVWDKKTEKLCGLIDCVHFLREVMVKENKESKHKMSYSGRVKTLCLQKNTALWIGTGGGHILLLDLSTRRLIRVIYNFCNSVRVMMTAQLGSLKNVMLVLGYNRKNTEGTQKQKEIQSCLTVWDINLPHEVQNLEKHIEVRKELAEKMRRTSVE

SMILES	% LRRKtide phosphorylation relative to solvent [1] [%]	Phosphorylation level relative to solvent (%) (cellular pS935 assay) [2]	dephosphorylation of LRRK2 (Ser935) [2]	activity on LRRK2 kinase activity in vitro (in words) ([1]; no activity at 10 μM)
CN(C)CCCn1cc(C2=C(c3c[nH]c4ccccc34)C(=O)NC2=O)c2ccccc21 [Bisindolylmaleimide I]	4.46	73.14	–	–
c1cc(-c2cnn3cc(-c4ccc(OCCN5CCCCC5)cc4)cnc23)ccn1 [AMPK inhibitor, compound C]	24.40	112.70	–	–
Cc1nc2cc3nc(-c4cccs4)cnc3cc2n1C [AGL 2043]	29.68	90.06	–	–
O=C1Nc2ccc(Cl)cc2/C1=C/c1cc(Cl)c(O)c(Cl)c1 [PKR inhibitor, negative control]	1.07	72.69	–	–
O=C1NC(=O)c2c1c1c3ccccc3n3c1c1c2c2ccccc2n1C1CCC3O1 [SB 218078]	1.94	89.51	–	–
NC(=O)Nc1sc(-c2ccc(F)cc2)cc1C(N)=O [IKK-2 inhibitor IV]	5.13	108.38	–	–
O=[N+]([O-])/C=C/c1ccc2c(c1)OCO2 [Syk inhibitor III]	82.95	68.01	–	–
COc1cc2c(cc1OC)-c1[nH]nc(Nc3cccc(F)c3)c1C2 [PDGF receptor tyrosine kinase inhibitor IV]	23.12	57.30	–	–
CCn1cnc2c(Nc3cccc(Cl)c3)nc(N[C@@H]3CCCC[C@@H]3N)nc21 [Cdk1 inhibitor, CGP74514A, CGP74514A]	3.91	83.35	–	–
CO[C@H]1[C@@H](OC)C[C@H](C)[C@@H](OC)C2=CC(=O)C=C(NC(=O)/C(C)=C/C=C\[C@H](OC)[C@@H](OC(N)=O)/C(C)=C/[C@@H]1C)C2=O [Herbimycin A, Streptomyces sp., Herbimycin A]	103.97	92.79	–	–
O=c1[nH]c2ccccc2n1C1CCN(Cc2ccc(-c3nc4cc5nc[nH]c5cc4nc3-c3ccccc3)cc2)CC1 [Akti-1/2]	99.69	77.80	–	–
COc1ccc2c(c[n+](C)c3c4cc5c(cc4ccc23)OCO5)c1OC [Chelerythrine chloride]	77.91	67.25	–	–
O=C(NC(NC(=S)Nc1ccc(F)c([N+](=O)[O-])c1)C(Cl)(Cl)Cl)C(c1ccccc1)c1ccccc1 (stereo not drawn) [ATM/ATR kinase inhibitor]	131.38	88.64	–	–
N#C/C(=C/c1ccc(O)c(O)c1)C(=O)NCc1ccccc1 [AG490]	34.24	50.68	49.32%	–
COc1cc2ncc(-c3ccccc3)nc2cc1OC [AG 1296]	22.76	50.93	–	–
N#CC(C#N)=C(N)/C(C#N)=C/c1ccc(O)cc1 [AG 112]	77.45	60.39	–	–
CCOc1nc(NC(=O)Cc2cc(OC)ccc2OC)cc(N)c1C#N [JNK inhibitor VIII]	105.45	93.08	–	–
COc1cccc(-c2cc(=O)c3ccccc3o2)c1N [PD98059]	92.53	106.55	–	–
Cc1ccc(S(=O)(=O)/C=C/C#N)cc1 [BAY 11-7082]	132.94	47.14	~ 50%	inactive

More lines, main results first:

% LRRKtide phosphorylation relative to solvent [1] [%]	Phosphorylation level relative to solvent (%) (cellular pS935 assay) [2]	SMILES	dephosphorylation of LRRK2 (Ser935) [2]	activity on LRRK2 kinase activity in vitro (in words) ([1]; no activity at 10 μM)
79.40	89.37	O=S(=O)(c1cccc2cnccc12)N1CCCNCC1 [HA 1077, Dihydrochloride Fasudil, Fasudil]	–	–
38.91	63.54	COc1ccc(C(=O)Nc2sc3c(c2C(N)=O)CCCC3)cc1OC [Flt-3 inhibitor]	–	–
5.79	56.41	Cn1c2ccccc2c2c3c(c4c5ccccc5n(CCC#N)c4c21)CNC3=O [Gö 6976]	–	–
2.32	81.52	O=C1c2ccccc2-c2n[nH]c3cccc1c23 [JNK inhibitor II]	–	–
47.94	71.73	c1ccc(-c2[nH]ncc2-c2ccnc3ccccc23)nc1 [TGF-b RI kinase inhibitor]	–	–
86.06	81.93	O=c1cc(N2CCOCC2)oc2c1ccc1ccccc12 [DNA-PK inhibitor II]	–	–
17.88	107.46	Cn1nc2c3c(cccc31)C(=O)c1ccccc1-2 [JNK inhibitor, negative control]	–	–
25.04	123.99	Nc1[nH]nc2nc3ccccc3nc12 [Cdk1/5 inhibitor]	–	–
68.41	71.78	CC(=O)c1ccc(N2CCOCC2)cc1O [DNA-PK inhibitor III]	–	–
61.91	69.13	CCN(CC)CCCCN1c2ccccc2Oc2ccc(Cl)cc21 [Akt inhibitor X]	–	–
37.61	71.85	N#CC(c1ccnc(NCCc2cccnc2)n1)c1nc2ccccc2s1 (stereo not drawn) [JNK inhibitor V]	–	–
44.14	68.59	CC(C)(C)n1nc(Cc2cccc3ccccc23)c2c(N)ncnc21 [PP1 analog II, 1NM-PP1, 1NM-PP1]	–	–
48.07	104.03	Cc1nc(-c2ccccc2)c(-c2ccncc2)o1 [SC-68376]	–	–
13.54	122.47	Nc1cccc(-c2cc3c(Oc4cccc(O)c4)ncnc3[nH]2)c1 [GSK-3b inhibitor XII, TWS119, TWS119]	–	–
124.71	100.55	N#C/C(=C(/N)SC1C=CC=CC1)c1cccc(C(O)c2ccncc2)c1 (stereo not drawn) [MEK inhibitor I]	–	–
123.21	60.73	O=C(CCCc1ccc(-c2ccccc2F)cc1)Nc1ccc(O)cc1 [MK2a inhibitor]	–	–
21.13	108.79	O=C1C(Cl)=C(N2C(=O)CCC2=O)C(=O)c2ccccc21 [MEK inhibitor II]	–	–
3.07	84.51	O=C1NC(=O)C(c2c[nH]c3ccccc23)=C1c1c[nH]c2ccccc12 [Bisindolylmaleimide IV]	–	–
61.45	42.05	N#Cc1c(NC(=O)c2cccc3ccccc23)sc2c1CCCC2 [JNK inhibitor IX]	–	–
128.15	115.21	COc1ccc(CNC(=O)Nc2ncc([N+](=O)[O-])s2)cc1 [GSK-3b inhibitor VIII]	–	–
82.04	78.83	NC(=O)c1cccc(-c2cc(Nc3ccc(OC(F)(F)F)cc3)ncn2)c1 [Bcr-abl inhibitor]	–	–
60.00	97.88	NC(=O)c1ccc(-c2nc(-c3ccc4c(c3)OCCO4)c(-c3ccccn3)[nH]2)cc1 [Casein kinase I inhibitor, D4476, D4476]	–	–
120.59	102.70	COc1ccc(S(=O)(=O)N(CCO)c2ccccc2CN(C)C/C=C/c2ccc(Cl)cc2)cc1 [KN-93]	–	–
2.16	53.00	O=C(c1cc2cc(O)ccc2[nH]1)c1cc2cc(O)ccc2[nH]1 [Flt-3 inhibitor II]	–	–
23.85	102.87	CCCCc1c(-c2ccc(O)cc2)[nH]c2nccnc12 [Aloisine A, RP107, Aloisine A]	–	–
88.58	71.34	Oc1cccc(-c2nc(N3CCOCC3)c3oc4ncccc4c3n2)c1 [PI-103]	–	–
100.90	84.51	Ic1cccc(CSc2nnc(-c3ccncc3)o2)c1 [GSK-3b inhibitor II]	–	–
45.29	155.11	Cl.Cl.O=S(=O)(NCCNC/C=C/c1ccc(Br)cc1)c1cccc2cnccc12 [H-89, Dihydrochloride]	–	–
73.68	70.97	Nc1nccc(-c2c(-c3ccc(F)cc3)ncn2C2CCNCC2)n1 [SB 220025]	–	–
